Results published in patent US4950651A, “Nitroso-N-(β-chloro ethyl)-carbamoyl peptides” (priority 1981, dated 1990).
Counter-ions that a name gives are not always drawn. Like-named read-outs stand apart in the source and are kept apart here. Where a SMILES comes first, the peptide text is derived from it. The star is where a group is joined. Carbamoyl(2-ClEt,NO) = O=NN(CCCl)C(=O)*

Legend:
[1] = system: L1210 leukemia; assay: Relation between effect and chemical structure in mice suffering from L1210 leukemia (Table III); format: in vivo
From the text: Examination of the relation between the
effect and the chemical structure with compounds
similar to compound of formula X in mice suffering

[2] = system: L1210 leukemia; format: in vivo, mice
From the text: Effect of compound of formula X in combination
with pharmaceuticals in mice suffering from L1210

[3] = system: L-1210 leukemia; assay: Effect on intraperitoneally implanted L-1210 leukemia in mice (Table I); format: in vivo; conditions: treatment 3 days
From the text: In table I the effect of Compound X [drawing 8] and VII on intraperitoneally implanted L-1210 leukemia is shown on mice.
Tumor inoculum = 10^6, ascites cells, i.p.
Host animal = CDF, female mice
Toxicity = on the 5th day < 4/6 mice are alive.
Evaluation = MST = average survival period
Critical limit = T/C ≥ 125, significant antitumor activity.

[4] = system: B16 melanoma; assay: Effect on solid tumors: B16 melanoma metastatizing mice tumor (i.m.); format: in vivo
From the text: (§1) (B) Lewis lung and B16 melanoma - meta-
(§2) statizing mice tumor (i.m.)
(§3) i.p. administration from the 1st day after […]

[5] = system: Lewis lung tumor; assay: Effect on solid tumors: Lewis lung metastatizing mice tumor (i.m.); format: in vivo
From the text: as §1, §2, §3

Compound `CC(C)[C@H](NC(=O)[C@@H]1CCCN1C(=O)[C@H](CCCCN)NC(=O)CNC(=O)N(CCCl)N=O)C(N)=O` [XII, α-N-nitroso-N-(β-chloro-ethyl)-carbamoyl-glycyl-lysyl-prolyl-valine-amide-hydrochloride] ({Carbamoyl(2-ClEt,NO)}-GKPV-NH2) has an ILS % ([1]; 15 mg/kg) of 20%, an ILS % ([1]; 45 mg/kg) of 10% and an ILS % ([1]; 100 mg/kg) of 35%. For the same compound, the ILS % ([1]; 150 mg/kg) was 230%.
With `O=P1(N(CCCl)CCCl)NCCCO1` (stereo not drawn) [cyclophosphamide] the ILS % ([2]; 1 × 50 mg/kg, day 2) was 44%.
`O=NN(CCCl)C(=O)N[C@H]1C(O)O[C@H](CO)[C@@H](O)[C@@H]1O` (stereo partly drawn) [Chlorosoticin, 2-[3-(2-chloro-ethyl)-3-nitroso-ureido]-2-deoxy-O-glycopyranose] was tested, and the “Average loss of weight on the 5th day” value ([3]; dose IP 8 mg/kg) was “+1.2 g”, the “MST (average survival period)” value ([3]; dose IP 8 mg/kg) was 9.0 days and the “MST efficiency %, T/C” value ([3]; dose IP 8 mg/kg) was 150%. The “Number of live mice on the 5th day” value ([3]; dose IP 8 mg/kg) was 6/6, the “Average loss of weight on the 5th day” value ([3]; dose IP 16 mg/kg) was -0.8 g and the “MST (average survival period)” value ([3]; dose IP 16 mg/kg) was 20.5 days. The “MST efficiency %, T/C” value ([3]; dose IP 16 mg/kg) was 342%, the “Number of live mice on the 5th day” value ([3]; dose IP 16 mg/kg) was 6/6 and the “Average loss of weight on the 5th day” value ([3]; dose IP 32 mg/kg) was -1.2 g. The “MST (average survival period)” value ([3]; dose IP 32 mg/kg) was over 47.0 days, the “MST efficiency %, T/C” value ([3]; dose IP 32 mg/kg) was over 783% and the “Number of live mice on the 5th day” value ([3]; dose IP 32 mg/kg) was 5/6. For the same compound, the “Number of live mice on the [47th] day” value ([3]; dose IP 32 mg/kg) was 3, the “Average loss of weight on the 5th day” value ([3]; dose IP 48 mg/kg) was -1.3 g and the “MST (average survival period)” value ([3]; dose IP 48 mg/kg) was 8.5 days. The “MST efficiency %, T/C” value ([3]; dose IP 48 mg/kg) was 142% and the “Number of live mice on the 5th day” value ([3]; dose IP 48 mg/kg) was 6/6.
For `O=NN(CCCl)C(=O)NCCCl` [BCNU, 1,3-bis-(β-chloro-ethyl)-1-nitroso-urea], the ILS % ([4]; 20 mg/kg i.p.) was 61%, the Median surviving day ([4]; 20 mg/kg i.p.) was 42.0 days and the ILS % ([4]; 5 × 4 mg/kg i.p.) was 31%. The Median surviving day ([4]; 5 × 4 mg/kg i.p.) was 34.0 days, the ILS % ([2]; 5 mg/kg, day 1) was 25% and the ILS % ([2]; 20 mg/kg, day 1) was 110%. The ILS % ([2]; 1 × 10 mg/kg, day 2) was 77%, the ILS % ([2]; 1 × 20 mg/kg, day 3) was 70% and the ILS % ([5]; 20 mg/kg i.p.) was 36%. It also gave a Median surviving day ([5]; 20 mg/kg i.p.) of 28.5 days, an ILS % ([5]; 5 × 4 mg/kg i.p.) of 19% and a Median surviving day ([5]; 5 × 4 mg/kg i.p.) of 25.0 days. For the same compound, the “Average loss of weight on the 5th day” value ([3]; dose IP 30 mg/kg) was -0.8 g, the “MST (average survival period)” value ([3]; dose IP 30 mg/kg) was over 47.0 days and the “MST efficiency %, T/C” value ([3]; dose IP 30 mg/kg) was over 783%. For the same compound, the “Number of live mice on the 5th day” value ([3]; dose IP 30 mg/kg) was 6/6, the “Number of live mice on the [47th] day” value ([3]; dose IP 30 mg/kg) was 5 and the “Average loss of weight on the 5th day” value ([3]; dose IP 40 mg/kg) was -1.4 g. For the same compound, the “MST (average survival period)” value ([3]; dose IP 40 mg/kg) was over 47.0 days, the “MST efficiency %, T/C” value ([3]; dose IP 40 mg/kg) was over 783% and the “Number of live mice on the 5th day” value ([3]; dose IP 40 mg/kg) was 6/6. For the same compound, the “Number of live mice on the [47th] day” value ([3]; dose IP 40 mg/kg) was 5.
In the case of `O[C@H]([C@H](O)[C@@H](O)CBr)[C@H](O)CBr` [dibromodulcitol], the ILS % ([2]; 1 × 50 mg/kg, day 2) is reported as 0%.
